In patent publication US20080318943A1, “Compounds and Uses Thereof - 848” (ASTRAZENECA AB, priority 2007, published 2008):

Key:
[1] = biological target: T1, GABAA receptor α1β2γ2 (Homo sapiens, UniProt P14867+P18507); experiment: Two-electrode voltage-clamp potentiation of GABA EC10 current in Xenopus oocytes, GABAA1; assay type: cell-based; details: percentage potentiation of GABA EC10 current divided by that of diazepam
T1 construct: expressed in transfected cells; host or cells: Xenopus laevis oocytes injected with cRNA
In short: (§1)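 Human GABAA receptors expressed in Xenopus oocytes by cRNA injection (α:β:γ molar ratio ~1:1:10 for α1β2γ2, 1:1:1 for α2β3γ2), recorded 2-10 days later by two-electrode voltage clamp at −60 mV in ND-96, pH 7.5. Modulator preapplied 30 s before GABA at per-oocyte EC10. Peak-current percent potentiation over GABA alone, normalised to diazepam.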

[2] = biological target: T2, GABAA2 receptors (α2, β3, γ2 receptor subunits transfected into Sf9 cells) (Homo sapiens, UniProt P18507+P47869); experiment: GABAA2 Binding Method ([3H]-Flunitrazepam displacement); details: [3H]-Flunitrazepam ~2 nM, α2β3γ2 Sf9 membranes, 1 hr at 4° C.
T2 construct: host or cells: Sf9 cells (membranes)
In short: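 Displacement of [3H]-flunitrazepam (~2 nM in assay) from recombinant human α2β3γ2 receptors in Sf9 membranes; 1 h incubation at 4 °C, harvest by filtration. Values reported as percent of control, IC50 and Ki.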

[3] = biological target: T3, GABAA receptor α2β3γ2 (Homo sapiens, UniProt P18507+P47869); experiment: Two-electrode voltage-clamp potentiation of GABA EC10 current in Xenopus oocytes, GABAA2; assay type: cell-based; details: percentage potentiation of GABA EC10 current divided by that of diazepam
T3 construct: expressed in transfected cells; host or cells: Xenopus laevis oocytes injected with cRNA
In short: as §1

T1 sequence (P14867 28-456): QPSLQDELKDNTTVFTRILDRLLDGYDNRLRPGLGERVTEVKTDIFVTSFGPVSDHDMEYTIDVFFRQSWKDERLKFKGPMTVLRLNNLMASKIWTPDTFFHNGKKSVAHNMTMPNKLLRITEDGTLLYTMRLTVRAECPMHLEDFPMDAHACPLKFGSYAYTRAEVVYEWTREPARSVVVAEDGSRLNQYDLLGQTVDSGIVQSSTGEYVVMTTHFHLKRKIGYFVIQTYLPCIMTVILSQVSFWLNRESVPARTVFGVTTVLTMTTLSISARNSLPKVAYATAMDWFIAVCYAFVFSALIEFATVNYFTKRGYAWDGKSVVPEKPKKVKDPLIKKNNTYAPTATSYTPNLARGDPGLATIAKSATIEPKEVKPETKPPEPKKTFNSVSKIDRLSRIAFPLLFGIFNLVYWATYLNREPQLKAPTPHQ
T1 sequence (P47870 25-512 partner limits assumed): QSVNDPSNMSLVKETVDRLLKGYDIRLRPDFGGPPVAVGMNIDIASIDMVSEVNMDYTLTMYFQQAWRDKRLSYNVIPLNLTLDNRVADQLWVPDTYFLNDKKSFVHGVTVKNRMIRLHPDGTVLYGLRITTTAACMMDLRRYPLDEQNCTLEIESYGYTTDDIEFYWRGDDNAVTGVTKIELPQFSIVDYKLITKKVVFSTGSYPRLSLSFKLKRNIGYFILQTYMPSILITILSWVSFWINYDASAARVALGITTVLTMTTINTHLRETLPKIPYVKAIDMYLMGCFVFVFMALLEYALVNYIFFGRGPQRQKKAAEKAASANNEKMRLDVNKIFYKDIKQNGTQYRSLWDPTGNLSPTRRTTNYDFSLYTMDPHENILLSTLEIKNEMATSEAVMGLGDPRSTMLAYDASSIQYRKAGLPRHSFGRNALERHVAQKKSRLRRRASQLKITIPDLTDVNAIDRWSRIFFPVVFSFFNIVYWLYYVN
T1 sequence (P18507 40-475): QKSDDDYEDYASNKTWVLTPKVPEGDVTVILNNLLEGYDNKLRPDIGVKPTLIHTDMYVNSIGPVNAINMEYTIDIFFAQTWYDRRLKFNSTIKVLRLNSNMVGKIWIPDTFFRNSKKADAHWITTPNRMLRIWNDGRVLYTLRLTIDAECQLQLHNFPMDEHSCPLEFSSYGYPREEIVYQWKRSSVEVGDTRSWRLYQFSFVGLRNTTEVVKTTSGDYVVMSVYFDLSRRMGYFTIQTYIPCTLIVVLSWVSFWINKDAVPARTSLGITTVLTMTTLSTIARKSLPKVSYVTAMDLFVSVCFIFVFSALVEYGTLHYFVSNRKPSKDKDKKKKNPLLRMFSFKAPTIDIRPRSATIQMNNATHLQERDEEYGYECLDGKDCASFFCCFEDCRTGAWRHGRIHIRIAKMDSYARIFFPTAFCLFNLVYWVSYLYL
T2 sequence (P47869 29-451): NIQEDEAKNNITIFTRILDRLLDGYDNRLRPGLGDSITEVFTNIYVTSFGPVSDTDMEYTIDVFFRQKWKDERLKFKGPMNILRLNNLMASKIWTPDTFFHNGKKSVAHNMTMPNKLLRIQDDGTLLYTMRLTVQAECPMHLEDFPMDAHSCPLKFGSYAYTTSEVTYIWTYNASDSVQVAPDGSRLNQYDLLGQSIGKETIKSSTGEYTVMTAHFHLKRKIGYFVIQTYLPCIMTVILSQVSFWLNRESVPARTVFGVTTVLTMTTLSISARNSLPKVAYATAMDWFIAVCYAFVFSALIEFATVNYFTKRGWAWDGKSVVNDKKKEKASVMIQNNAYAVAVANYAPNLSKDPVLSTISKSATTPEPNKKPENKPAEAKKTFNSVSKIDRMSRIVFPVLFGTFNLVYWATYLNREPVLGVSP
T2 sequence (P28472 26-473 partner): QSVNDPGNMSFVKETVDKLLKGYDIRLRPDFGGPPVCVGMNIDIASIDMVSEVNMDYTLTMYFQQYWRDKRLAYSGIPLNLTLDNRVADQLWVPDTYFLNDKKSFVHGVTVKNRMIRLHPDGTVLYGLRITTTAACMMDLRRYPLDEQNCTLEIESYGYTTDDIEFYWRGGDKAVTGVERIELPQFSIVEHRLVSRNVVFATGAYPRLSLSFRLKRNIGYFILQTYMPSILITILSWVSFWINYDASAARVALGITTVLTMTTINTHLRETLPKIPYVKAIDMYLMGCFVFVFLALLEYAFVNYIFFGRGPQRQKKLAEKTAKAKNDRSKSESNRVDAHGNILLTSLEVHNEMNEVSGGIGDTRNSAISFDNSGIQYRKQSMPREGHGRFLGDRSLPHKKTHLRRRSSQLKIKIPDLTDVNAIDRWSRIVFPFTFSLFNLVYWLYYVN
T2 sequence (P18507 40-475): as the sequence (P18507 40-475) above
T3 sequence (P47869 29-451): as the sequence (P47869 29-451) above
T3 sequence (P28472 26-473 partner): as the sequence (P28472 26-473 partner) above
T3 sequence (P18507 40-475): as the sequence (P18507 40-475) above

Compound	Relative Potentiation for GABAA1 [1]	Ki [2]	Relative Potentiation for GABAA2 [3]
COc1ccc(F)c(-c2c(F)ccc3c(N)c4c(nc23)CN(C2CC2)C4=O)c1F [9-Amino-2-cyclopropyl-5-(2,6-difluoro-3-methoxyphenyl)-6-fluoro-2,3-dihydropyrrolo[3,4-b]quinolin-1-one]	0.062	4.12 nM	0.17
COc1cc(F)c(-c2cccc3c(N)c4c(nc23)CN(C2CC2)C4=O)c(F)c1 [9-Amino-2-cyclopropyl-5-(2,6-difluoro-4-methoxyphenyl)-2,3-dihydropyrrolo[3,4-b]quinolin-1-one]	−0.02	8.14 nM	0.088
Cc1ccc(-c2cccc3c(N)c4c(nc23)CN(C2CC2)C4=O)c(F)n1 [9-Amino-2-cyclopropyl-5-(2-fluoro-6-methylpyridin-3-yl)-2,3-dihydropyrrolo[3,4-b]quinolin-1-one]	0	43.4 nM	0.18
Nc1c2c(nc3c(-c4ccccc4F)cccc13)CN(C1CC1)C2=O [9-Amino-2-cyclopropyl-5-(2-fluorophenyl)-2,3-dihydropyrrolo[3,4-b]quinolin-1-one]	−0.024	18.3 nM	0.16
Cc1ccc(-c2cccc3c(N)c4c(nc23)CN(C2CC2)C4=O)cn1 [9-Amino-2-cyclopropyl-5-(6-methyl-pyridin-3-yl)-2,3-dihydropyrrolo[3,4-b]quinolin-1-one]	−0.11	29.9 nM	0.1
COc1cccc(-c2c(F)ccc3c(N)c4c(nc23)CN(C2CC2)C4=O)c1F [9-Amino-2-cyclopropyl-6-fluoro-5-(2-fluoro-3-methoxyphenyl)-2,3-dihydropyrrolo[3,4-b]quinolin-1-one]	0.032	2.68 nM	0.13
COc1ccc(F)c(-c2c(F)ccc3c(N)c4c(nc23)CN(C2CC2)C4=O)c1 [9-Amino-2-cyclopropyl-6-fluoro-5-(2-fluoro-5-methoxyphenyl)-2,3-dihydropyrrolo[3,4-b]quinolin-1-one]	0.002	7.54 nM	0.15
COc1ccccc1-c1c(F)ccc2c(N)c3c(nc12)CN(C1CC1)C3=O [9-Amino-2-cyclopropyl-6-fluoro-5-(2-methoxyphenyl)-2,3-dihydropyrrolo[3,4-b]quinolin-1-one]	0.02	3.72 nM	0.2
CCN1Cc2nc3c(-c4ccc(F)c(OC)c4)cccc3c(N)c2C1=O [9-Amino-2-ethyl-5-(4-fluoro-3-methoxyphenyl)-2,3-dihydropyrrolo[3,4-b]quinolin-1-one]	0.09	25.5 nM	0.18
CCN1Cc2nc3c(-c4cnccc4C)cccc3c(N)c2C1=O [9-Amino-2-ethyl-5-(4-methylpyridin-3-yl)-2,3-dihydropyrrolo[3,4-b]quinolin-1-one]	0.08	23.4 nM	0.14
CCN1Cc2nc3c(-c4cc(F)ccc4OC)cccc3c(N)c2C1=O [9-Amino-2-ethyl-5-(5-fluoro-2-methoxyphenyl)-2,3-dihydropyrrolo[3,4-b]quinolin-1-one]	0.054	27.4 nM	0.17
CCN1Cc2nc3c(-c4cc(OC)ccc4F)c(F)ccc3c(N)c2C1=O [9-Amino-2-ethyl-6-fluoro-5-(2-fluoro-5-methoxyphenyl)-2,3-dihydropyrrolo[3,4-b]quinolin-1-one]	0.005	1.4 nM	0.17
CCN1Cc2nc3c(-c4c(F)cccc4OC)c(F)ccc3c(N)c2C1=O [9-Amino-2-ethyl-6-fluoro-5-(2-fluoro-6-methoxyphenyl)-2,3-dihydropyrrolo[3,4-b]quinolin-1-one]	−0.12	3.47 nM	0.093
CCN1Cc2nc3c(-c4cnccc4C)c(F)ccc3c(N)c2C1=O [9-Amino-2-ethyl-6-fluoro-5-(4-methylpyridin-3-yl)-2,3-dihydropyrrolo[3,4-b]quinolin-1-one]	−0.0025	2.01 nM	0.094
CCN1Cc2nc3c(-c4ccc(OC)cc4OC)c(F)ccc3c(N)c2C1=O [9-Amino-5-(2,4-dimethoxy-phenyl)-2-ethyl-6-fluoro-2,3-dihydropyrrolo[3,4-b]quinolin-1-one]	0.072	4.84 nM	0.11
COc1ccc(Cl)c(-c2cccc3c(N)c4c(nc23)CN(C2CC2)C4=O)c1 [9-Amino-5-(2-chloro-5-methoxyphenyl)-2-cyclopropyl-2,3-dihydropyrrolo[3,4-b]quinolin-1-one]	0.068	33.2 nM	0.14
COc1cccc(-c2cccc3c(N)c4c(nc23)CN(C)C4=O)c1F [9-Amino-5-(2-fluoro-3-methoxyphenyl)-2-methyl-2,3-dihydropyrrolo[3,4-b]quinolin-1-one]	0.09	32.5 nM	0.11
COc1cccc(F)c1-c1cccc2c(N)c3c(nc12)CN(C1CC(C)C1)C3=O (stereo not drawn) [9-Amino-5-(2-fluoro-6-methoxyphenyl)-2-(3-methylcyclobutyl)-2,3-dihydropyrrolo[3,4-b]quinolin-1-one]	0.11	3.75 nM	0.36
COc1cccc(F)c1-c1cccc2c(N)c3c(nc12)CN(C(C)C)C3=O [9-Amino-5-(2-fluoro-6-methoxyphenyl)-2-isopropyl-2,3-dihydropyrrolo[3,4-b]quinolin-1-one]	−0.16	26.8 nM	0.15
CCN1Cc2nc3c(-c4cc(Cl)ccc4OC)c(F)ccc3c(N)c2C1=O [9-Amino-5-(5-chloro-2-methoxyphenyl)-2-ethyl-6-fluoro-2,3-dihydropyrrolo[3,4-b]quinolin-1-one]	0.033	2.22 nM	0.27
COc1cccc(F)c1-c1c(F)ccc2c(N)c3c(nc12)CN(C)C3=O [9-Amino-6-fluoro-5-(2-fluoro-6-methoxyphenyl)-2-methyl-2,3-dihydropyrrolo[3,4-b]quinolin-1-one]	−0.02	8.14 nM	0.088
COc1ncc(-c2cccc3c(N)c4c(nc23)CN(Cc2ccc(OC)c(OC)c2)C4=O)c(OC)n1 [9-amino-2-(3,4-dimethoxybenzyl)-5-(2,4-dimethoxypyrimidin-5-yl)-2,3-dihydro-1H-pyrrolo[3,4-b]quinolin-1-one]	0.19	13.5 nM	0.42
COc1ccc(CN2Cc3nc4c(-c5cnccc5OC)cccc4c(N)c3C2=O)cc1OC [9-amino-2-(3,4-dimethoxybenzyl)-5-(4-methoxypyridin-3-yl)-2,3-dihydro-1H-pyrrolo[3,4-b]quinolin-1-one]	0.23	1.5 nM	0.37
COc1ccc(CN2Cc3nc4c(-c5cnccc5OC)cccc4c(N)c3C2=O)cc1 [9-amino-2-(4-methoxybenzyl)-5-(4-methoxypyridin-3-yl)-2,3-dihydro-1H-pyrrolo[3,4-b]quinolin-1-one]	0.32	3.35 nM	0.52
Cc1cccc(C)c1-c1cccc2c(N)c3c(nc12)CN(C1CC1)C3=O [9-amino-2-cyclopropyl-5-(2,6-dimethylphenyl)-2,3-dihydro-1H-pyrrolo[3,4-b]quinolin-1-one]	−0.07	23.9 nM	0.025
COc1ncc(-c2cccc3c(N)c4c(nc23)CN(C2CC2)C4=O)cc1C [9-amino-2-cyclopropyl-5-(6-methoxy-5-methylpyridin-3-yl)-2,3-dihydro-1H-pyrrolo[3,4-b]quinolin-1-one]	0.088	55.3 nM	0.08
